Measurements taken from patent US20060079573A1, “Methods and compositions for preventing vasospasm” (priority 2004, published 2006).

Legend:
radial artery = conditions: cited from earlier work
[1] = system: radial and internal mammary arteries; conditions: cited from earlier work
canine brachial arteries [2] = test: Histologic evaluation (H and E) of vessels for morphologic injury; assay type: cell-based; conditions: 48 h after 1 mM WT treatment and incubation
Method: Prolonged storage in cell culture environments has the potential to cause cellular injury, which might impair smooth muscle function. To confirm that the lack of the observed contraction in WT-treated vessels was not a function of cellular damage, a subset of vessels was tested for histological signs of injury and apoptosis after treatment with WT and incubation for 48 h. For histology, formalin-fixed vessels were embedded in paraffin blocks, cut into sections for slide preparation, and stained with hematoxylin and eosin (H and E) prior to examination for signs of morphologic damage.

canine brachial arteries [3] = test: Contractile function of artery segments in organ chambers after WT soak; assay type: cell-based; conditions: for force of contraction in response to 5HT: 1 μM 5-HT; for force of contraction in response to NE: 1 μM NE; for force of contraction in response to U46: 3 μM U46619; for force of contraction in response to KCl: 60 mM KCl
From the text: Canine brachial arteries, equivalents of radial arteries in humans, were used in this study since they were more readily available and we could obtain longer segments than human radial arteries. Based on previous publications, it has been determined that the contractile and relaxation properties of these canine vessels are similar to the properties of human radial arteries in organ chamber studies [Corvera et al. (2003) Pretreatment with phenoxybenzamine attenuates the radial artery's vasoconstrictor response to α-adrenergic stimuli, J. Thorac. Cardiovasc. Surg., 126:1549-54; Velez et al., 2001]. The arteries were harvested as a pedicle graft and stored in 4° C. KH buffer (in mM/1: glucose 11; magnesium sulfate, 1.2; potassium phosphate 1.2; KCl, 4.7; sodium chloride 118; calcium chloride, 2.5) at pH 7.4 until ready for use.
The vessels were carefully skeletonized, cut into 4-5 mm segments, and soaked in a 1 mM solution of WT in KH buffer and 10% DMSO (used to increase solubility of WT), pH 7.4 at 37° C. for 60 min. Control vessels were soaked in KH buffer with 10% DMSO only. The vessels were then rinsed well with KH to remove all unbound drug. For testing of contractile responses, the arterial segments were mounted on steel hooks in glass organ chambers (Radnoti Glass, Monrovia, Calif.) in KH buffer at pH 7.4 and 37° C., and continuously bubbled with a gas mixture of 95% O2 and 5% CO2. One steel hook was held stationary while the other was attached to a force transducer. Force generated by the vessels in response to various agonists was recorded using an analog-to-digital converter and SPECTRUM Cardiovascular Acquisition and Analysis software (Wake Forest University, Winston-Salem, N.C.). The vessel segments were allowed to stabilize at a baseline tension of 3 g for 60 min prior to testing the effect of various vasoconstrictor agents. During this time, the buffer was changed every 20 min. The total time from the end of WT treatment until contractile responses were tested was approximately 2 h. The contractile responses to 1 μM NE (α1 receptor-dependent, calcium-dependent), 1 μM 5-HT (serotonin receptor-dependent, calcium-independent), 3 μM U46 (thromboxane A2 receptor-dependent, calcium-independent), and 60 mM KCl (receptor-independent depolarizing agent) were then quantified. […] The order in which the constricting agents were administered was varied randomly in order to avoid the effects of one drug on another. […] The vessels were thoroughly washed and allowed to stabilize for 20 min between vasoconstrictor agents. The resting tension was adjusted to 3 g during each stabilization period.
To test the duration of MLCK inhibition by the 60 min pre-treatment with 1 mM WT, a subset of vessels were harvested and treated with WT as above, then incubated in drug-free sterile culture medium [Dulbecco's modified eagle medium (Sigma, St Louis Mo.), with 10% newborn calf serum (Gibco, Inc.) and 1% penicillin-streptomycin] under sterile conditions for 48 h in an incubator aerated with 95% O2 and 5% CO2. The culture medium was changed every 12 h during this time. At the end of the 48 h period, the vessels were removed, rinsed with KH buffer, and contractile responses were tested as described above.

canine brachial arteries [4] = test: TUNEL assay of endothelial and smooth muscle cell apoptosis in vessels; assay type: cell-based
Method: Endothelial and smooth muscle cell apoptosis was evaluated using the terminal deoxynucleotidyl transferase (TdT)-mediated dUTP nick end labeling (TUNEL) method. In preparation for the TUNEL assay, the vessels were embedded in optimal cutting temperature compound (OCT, Sakura Finetek, Torrance, Calif.). Cryosections from frozen tissue were obtained using a Hacker-Bright cryostat and thaw-mounted onto Fisher-Plus slides (Fisher Scientific). Determination of apoptosis was performed using an in situ cell death detection kit (Roche Applied Science, Indianapolis, Ind.). DNA strand breaks were labeled with fluorescein-dUTP, followed by the addition of a secondary, antifluorescein antibody conjugated with alkaline phosphatase, a converter which generates a red color from Vector Red substrate. Folio wing counterstaining with hematoxylin and dehydration in graded alcohols, the number of apoptotic cells (indicated by red-stained nuclei) per high power field (HPF) was counted under light microscopy and is expressed as a percentage of the total number of nuclei per HPF.

canine brachial arteries [5] = test: Endothelial-independent smooth muscle relaxation to SNP after U46 pre-constriction; assay type: cell-based; conditions: 48 h after 1 mM WT; lower SNP concentrations (≦0.5 μM); pre-constricted with 3 μM U46; controls 87.49±2.91%
Method: Cardiovasc. Surg., 126:179-85; van Son et al. (1992) Detrimental sequelae on the wall of the internal mammary artery caused by hydrostatic dilation with diluted papaverine solution, J. Thorac. Cardiovasc. Surg., 104:972-6]. Therefore, to test the vasorelaxation capacity of the vessels after treatment with WT, the vessels were pre-constricted with 3 μM U46, and then exposed to incrementally increasing concentrations (50 nM to […]) of SNP, a direct smooth muscle dilator.
The capacity of the vascular smooth muscle to relax independently of the endothelium was evaluated by pre-constricting vessels with U46, followed by exposure to incrementally increasing concentrations of SNP, a direct smooth muscle relaxing agent. […] Two hours after soaking, control vessels relaxed 99.04±7.30% from their pre-constricted state in response to SNP.

For CC(COc1ccccc1)N(CCCl)Cc1ccccc1 (centres unmarked) [phenoxybenzamine], the “prevention of alpha-agonist-induced contractions (in words)” value (radial artery; 48 h following treatment) is listed as “effective in preventing alpha-agonist-induced contractions at 48 h following treatment”.

For COc1ccc(Cc2nccc3cc(OC)c(OC)cc23)cc1OC [papaverine], the “effect on contraction after washout (in words)” value (radial artery; after the drug has been washed away) is listed as “virtually no effect after the drug has been washed away” and the “effect on endothelium (in words)” value [1] is listed as “causes both impairment of endothelial function and endothelial cell apoptosis”.

For COC[C@H]1OC(=O)c2coc3c2[C@@]1(C)C1=C(C3=O)[C@@H]2CCC(=O)[C@@]2(C)C[C@H]1OC(C)=O [WT, Wortmannin], the “microscopic evidence of injury, endothelium and elastic lamina (H and E)” value (canine brachial arteries [2]) was “appeared normal”, the “microscopic evidence of injury, smooth muscle (H and E)” value (canine brachial arteries [2]) was “minimal hypereosinophilic staining in the smooth muscle” and the “force of contraction in response to 5HT” value (canine brachial arteries [3]; 2 h after 60 min soak in 1 mM WT, control 9.64±0.67 g) was 0.92 ± 0.35 g. For the same compound, the “force of contraction in response to 5HT” value (canine brachial arteries [3]; 48 h incubation after 1 mM WT soak, control 12.42±0.70 g) was 4.67 ± 0.39 g, the “force of contraction in response to NE” value (canine brachial arteries [3]; 2 h after 60 min soak in 1 mM WT, control 7.22±0.37 g) was 0.19 ± 0.07 g and the “force of contraction in response to NE” value (canine brachial arteries [3]; 48 h incubation after 1 mM WT soak, control 6.95±0.47 g) was 2.36 ± 0.17 g. For the same compound, the “force of contraction in response to U46” value (canine brachial arteries [3]; 2 h after 60 min soak in 1 mM WT, control 10.99±0.50 g) was 1.25 ± 0.17 g, the “force of contraction in response to U46” value (canine brachial arteries [3]; 48 h incubation after 1 mM WT soak, control 9.29±0.74 g) was 5.42 ± 0.34 g and the “force of contraction in response to KCl” value (canine brachial arteries [3]; 2 h after 60 min soak in 1 mM WT, control 15.00±0.48 g) was 1.98 ± 0.27 g. For the same compound, the “force of contraction in response to KCl” value (canine brachial arteries [3]; 48 h incubation after 1 mM WT soak, control 13.32±0.60 g) was 7.49 ± 0.48 g, the contractile activity regained (canine brachial arteries [3]; 48 h after treatment) was “about 50%” and the “reduction of contractile responses / vasoconstriction” value (canine brachial arteries [3]; at 48 h following washout) was 50%. For the same compound, the “TUNEL-positive cells in the smooth muscle” value (canine brachial arteries [4]; 48 h after WT treatment and incubation, control 0.35±0.16%) was 4.63±1.04%, the “TUNEL-positive cells in the endothelium” value (canine brachial arteries [4]; 48 h after WT treatment and incubation, control 4.47±2.90%, P=0.058) was 16.88%±4.90 and the “apoptotic nuclei in smooth muscle layer versus control” value (canine brachial arteries [4]; FIG. 3, 400×) was “greater extent of apoptotic nuclei (black arrows) stained red by the TUNEL method in the smooth muscle layer of control vessels (A) as compared to WT-treated vessels”. For the same compound, the “apoptotic nuclei in endothelium versus control” value (canine brachial arteries [4]; FIG. 4, 400×) was “greater extent of apoptotic nuclei (black arrows) stained red by the TUNEL method in the endothelium of control vessels (A) as compared to WT-treated vessels” and the “relaxation response to SNP from pre-constricted state” value (canine brachial arteries [5]) was 76.01±2.60%.
